In article PMC10778976, “BAY-3827 and SBI-0206965: Potent AMPK Inhibitors That Paradoxically Increase Thr172 Phosphorylation” (International Journal of Molecular Sciences, 2023):

Assays:
71 kinases = tested on: 71 kinases; design: method as in PMID 17850214; details: 1 µM, screen against 71 kinases; cited from earlier work
110 kinases = tested on: 110 kinases; design: method as in ref 27 = [27]; 27. International Centre for Kinase Profiling Kinase Profiling Inhibitor Database Available online: https://www.kinase-screen.mrc.ac.uk/kinase-inhibitors (accessed on 14 November 2023); details: 10 µM, screen of 110 kinases; cited from earlier work
AMPK = target: AMPK; design: method as in PMID 28625738; details: read-out: Ki, competitive with ATP; cited from earlier work
[1] = target: T1, “naïve” (unphosphorylated), bacterially expressed human α1β1γ1 complex (Homo sapiens, UniProt Q13131+Q9Y478); experiment: Allosteric activation of naïve (unphosphorylated) α1β1γ1 complex by MK-8722 with and without BAY-3827; assay type: biochemical
T1 construct: (His)6
Excerpt: (§1) AMPK assays measured the transfer of radioactivity from labelled ATP to a peptide substrate, which was separated from unreacted ATP by binding to P81 paper. This assay was described previously, except that we used [γ-^33P]ATP rather than [γ-^32P]ATP. The peptide substrate was the AMARA peptide in all experiments other than one, which analyzed allosteric activation by AMP (Figure 2A), when, for technical reasons, the SAMS peptide was used instead. With purified preparations of AMPK, it was assayed in solution, but for assays in cell lysates (Figure 3D and Figure 4D), it was first immunoprecipitated using a mixture of anti-α1 and -α2 antibodies and assayed in resuspended immunoprecipitates. After the initial immunoprecipitation of lysate containing 80 µg of protein, the pellets were washed twice with 1 mL of high salt IP buffer (50 mM Tris-HCL, pH 7.4 at 4 °C, 1 M NaCl, 1 mM EDTA, 1 mM EGTA, 50 mM NaF, 5 mM Na pyrophosphate, 1 mM dithiothreitol, 0.1% (v/v) Triton X-100) and twice with 1 mL of low salt IP buffer (as above but only 150 mM NaCl), followed by a final wash in 1 mL of assay buffer (50 mM Na Hepes, pH7.4, 150 mM NaCl, 1 mM dithiothreitol, 0.02% (v/v) Brij-35). After each wash, the pellet was recovered via centrifugation (16,000× g, 3 min) and then resuspended. The final resuspended pellets from each biological replicate were divided into two aliquots (40 µg lysate protein) to provide technical replicates and assayed as above.

[2] = tested on: human AMPK (α2β1γ1 complex); details: control compound; cited from earlier work
[3] = tested on: Raptor (Ser792) phosphorylation in U2OS cells; experiment: Raptor phosphorylation in U2OS cells (Western blot); assay type: cell-based, human; details: 3 µM
Method: (§2) T-Rex U2OS cells carrying a Flp Recombinase Target (FRT) site were generated as described previously and grown in Dulbecco’s Modified Eagle’s Medium (DMEM) supplemented with 10% (v/v) FBS and 1% (v/v) penicillin/streptomycin.
(§3) Cells were lysed rapidly in situ on culture plates using ice-cold lysis medium containing phosphatase inhibitors, as described previously.
(§4) SDS-PAGE was performed using precast NuPAGE Tris-acetate 3–8% gradient polyacrylamide gels in Tris-acetate running buffer when analyzing ACC, GBF1, or Raptor, or NuPAGE Bis-Tris 4–12% gradient polyacrylamide gels in the MOPS buffer system (ThermoFisher Scientific, Waltham, MA, USA) for other proteins (unless stated otherwise). Proteins were transferred to nitrocellulose membranes using the iBlot 2 system (ThermoFisher Scientific). Membranes were enhanced if necessary using SuperSignal Western Blot Enhancer (ThermoFisher Scientific), then blocked for 1 h in Li-Cor Odyssey blocking buffer. The membranes were probed with the appropriate primary antibody ([…]) overnight at 4 °C. Detection was performed using secondary antibody or streptavidin probe (for total ACC) coupled to IR 680 or IR 800 dye, and the membranes were scanned using the LICOR Odyssey IR imager. Protein concentrations were determined by Coomassie Blue binding with bovine serum albumin as a standard. The cellular levels of AMP and ATP were determined via direct perchloric acid extraction from cells, with LC:MS used to estimate the levels of each nucleotide.

[4] = tested on: acetyl-CoA carboxylase (ACC, Ser80) phosphorylation in U2OS cells; experiment: ACC phosphorylation in U2OS cells (Western blot); assay type: cell-based, human; details: 3 µM
Method: as §2, §3, §4

[5] = tested on: GBF1 (Thr1337) phosphorylation in U2OS cells; experiment: GBF1 phosphorylation in U2OS cells (Western blot); assay type: cell-based, human; details: 3 µM
Method: as §2, §3, §4

[6] = tested on: endogenous AMPK from HEK-293 cells; experiment: Activation of dephosphorylated immunoprecipitated AMPK by the LKB1 complex; assay type: biochemical, human; details: 200 µM
Method: AMPK was immunoprecipitated from HEK-293 cell lysate (2.5 mg protein) using a mixture of anti-α1 and -α2 antibodies. After extensive washing, it was incubated in a shaking incubator at 30 °C for 20 min in Hepes buffer with 50 mM MgCl2 and sufficient PPM1A to yield about 90% inactivation (total volume of 250 µL). The reaction was terminated by adding 1 mL of IP buffer and, after additional washing in the same buffer, aliquots equivalent to 80 µg of lysate protein were incubated in a shaking incubator at 30 °C for 10 min in Hepes buffer with […] and 5 mM MgCl2, with or without a limiting amount of LKB1:STRADα:MO25α complex (0.5 µg) in the presence or absence of 200 µM AMP or the indicated concentration of BAY-3827 or SBI-0206965 (total volume of 50 µL). The reaction was terminated by adding 1 mL of IP buffer and, after additional washing in the same buffer and a final wash into Hepes buffer, AMPK activity was determined using kinase assays as above.

purified rat liver AMPK = experiment: Allosteric activation of rat liver AMPK by AMP with and without BAY-3827; assay type: biochemical
Excerpt: as §1

[7] = tested on: endogenous AMPK from HEK-293 cells; experiment: Protection of immunoprecipitated AMPK against inactivation by PP2Cα (PPM1A); assay type: biochemical, human; details: 200 µM
Method: AMPK was immunoprecipitated from HEK-293 cell lysate (2.5 mg of lysate protein) using a mixture of anti-α1 and -α2 antibodies. After extensive washing as in Section 4.5, aliquots equivalent to 80 µg of lysate protein were incubated in a shaking incubator at 30 °C for 10 min in Hepes buffer (50 mM Na Hepes, pH 7.4, 150 mM NaCl, 1 mM dithiothreitol, 0.02% (w/v) Brij-35) with 50 mM MgCl2 and sufficient PPM1A to yield about 80% inactivation, in the presence or absence of 200 µM AMP or the indicated concentration of BAY-3827 or SBI-0206965 (total volume 50 µL). The reaction was terminated by adding 1 mL of IP buffer (50 mM Tris/HCl, pH 7.4 at room temperature, 150 mM NaCl, 1 mM EDTA, 1 mM EGTA, 5 mM Na pyrophosphate, 50 mM NaF, 1 mM dithiothreitol, 0.1% (v/v) Triton X-100) and, after additional washing in the same buffer and a final wash into Hepes buffer, AMPK activity was determined using kinase assays as above.

[8] = in the presence of 30 nM BAY-3827

T1 sequence (Q13131 whole entry): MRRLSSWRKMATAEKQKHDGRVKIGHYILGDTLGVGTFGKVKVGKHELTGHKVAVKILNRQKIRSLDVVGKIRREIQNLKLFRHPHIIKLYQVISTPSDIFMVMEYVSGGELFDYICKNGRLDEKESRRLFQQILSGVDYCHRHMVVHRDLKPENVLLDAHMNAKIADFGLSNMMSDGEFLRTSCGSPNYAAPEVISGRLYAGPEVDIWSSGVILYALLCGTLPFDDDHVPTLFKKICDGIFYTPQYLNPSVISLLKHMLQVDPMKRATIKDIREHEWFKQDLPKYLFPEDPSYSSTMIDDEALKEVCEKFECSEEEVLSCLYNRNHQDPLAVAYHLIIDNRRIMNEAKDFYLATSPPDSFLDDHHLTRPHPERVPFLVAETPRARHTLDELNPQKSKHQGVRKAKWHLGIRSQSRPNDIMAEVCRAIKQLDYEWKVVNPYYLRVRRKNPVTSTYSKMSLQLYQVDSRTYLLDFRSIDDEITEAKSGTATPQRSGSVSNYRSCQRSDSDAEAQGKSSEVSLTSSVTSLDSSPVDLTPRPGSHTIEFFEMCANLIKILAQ
T1 sequence (Q9Y478 2-270): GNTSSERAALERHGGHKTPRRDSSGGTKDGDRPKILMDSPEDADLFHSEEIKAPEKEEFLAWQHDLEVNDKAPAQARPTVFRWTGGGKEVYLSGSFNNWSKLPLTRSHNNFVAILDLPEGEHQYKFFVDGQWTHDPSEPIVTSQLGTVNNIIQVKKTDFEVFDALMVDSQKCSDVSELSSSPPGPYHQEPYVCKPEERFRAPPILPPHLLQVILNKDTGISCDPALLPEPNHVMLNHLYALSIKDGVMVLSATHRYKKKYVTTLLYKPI
T1 sequence (P54619 whole entry partner): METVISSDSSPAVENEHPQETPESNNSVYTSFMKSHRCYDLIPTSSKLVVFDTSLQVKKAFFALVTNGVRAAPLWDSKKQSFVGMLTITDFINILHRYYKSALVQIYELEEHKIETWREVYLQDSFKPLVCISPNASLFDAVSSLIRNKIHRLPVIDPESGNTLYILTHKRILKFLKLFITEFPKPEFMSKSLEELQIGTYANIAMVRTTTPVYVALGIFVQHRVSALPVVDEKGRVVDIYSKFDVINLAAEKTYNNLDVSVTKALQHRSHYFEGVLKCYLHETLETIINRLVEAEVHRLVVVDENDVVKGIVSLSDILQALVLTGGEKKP

For c1cc(-c2cnn3cc(-c4ccc(OCCN5CCCCC5)cc4)cnc23)ccn1 [compound C, dorsomorphin], the “number of kinases inhibited to a greater extent than AMPK” value (71 kinases) is given as 9 and the “number of kinases inhibited to a greater extent than AMPK” value (110 kinases) is given as “no less than 30”.

In the case of CN(C)S(=O)(=O)c1ccc2c(c1)/C(=C/c1cc3c([nH]1)CCCC3)C(=O)N2 [SU6656], the Ki (AMPK) is given as 0.17 µM.

For MK-8722, the “maximal activation by MK-8722” value [1, 8] was 6.7 fold, the EC50 ([1]; without BAY-3827) was 1.1 µM and the “maximal activation by MK-8722” value ([1]; without BAY-3827) was 11 fold.

For CC1=C(C#N)C(c2ccc3c(c2)c(NC(=O)c2ccccc2C)nn3C)C(C#N)=C(C)N1 [BAY-974], the “inhibition of AMPK” value [2] is given as “did not inhibit”, the “elimination of MK-8722-stimulated Raptor phosphorylation” value [3] is given as “not” and the “elimination of MK-8722-stimulated ACC phosphorylation” value [4] is given as “not”. For the same molecule, the “elimination of MK-8722-stimulated GBF1 phosphorylation” value [5] was “not”.

With Nc1ncnc2c1ncn2[C@@H]1O[C@H](COP(=O)(O)O)[C@@H](O)[C@H]1O [AMP] the “promotion of activation by LKB1” value [6] was greater than 2 fold, the “maximal activation by AMP” value (purified rat liver AMPK; [8]) was 2.7 fold and the EC50 (purified rat liver AMPK; without BAY-3827) was 5.9 µM. The “maximal activation by AMP” value (purified rat liver AMPK; without BAY-3827) was 2.9 fold, the IC50 (purified rat liver AMPK; without BAY-3827, read-out: IC50 for inhibition by high AMP) was 1800 µM and the “protection against inactivation by PPM1A” value [7] was “substantial protection”.
